The values that follow come from publication PMC7737538 (ACS Medicinal Chemistry Letters, 2020).

The test system of one data set is human rhinovirus (HRV). As to conditions: read-out: EC50 against human rhinovirus (HRV); in vitro; cited from earlier work.
For the next data set, the system named is Vero cells. As to conditions: readout not given.
Data set [1] has as its system SARS-CoV-2 (two clinical isolates). The data set is described as follows: SARS-CoV-2 antiviral assay in Vero cells, statements without strain. The data set is classed as cell-based.
The test system of the next data set is HCMV AD-169 strain. The data set is described as follows: HCMV antiviral assay in HEL fibroblasts, AD-169 strain. It counts as cell-based, human cytomegalovirus. Particulars: strain not given.
Data set [2] has as its system VZV TK+ strain (strain Oka). The data set is classed as cell-based, varicella zoster virus. As to conditions: HEL fibroblasts; strain not given.
A further data set can be described thus: in vitro. As to conditions: human.

In the case of `Nc1ccn([C@@H]2O[C@H](CO)[C@@H](O)C2(F)F)c(=O)n1` [gemcitabine, 2′-deoxy-2′,2′-difluorocytidine, reference compound], the EC50 with human rhinovirus (HRV) was 0.81 to 1.92 µM. In the data set on Vero cells, the “cytotoxicity in Vero cells (in words)” value was “high cytotoxicity”.

`CO[C@]1(CO)O[C@@H](n2ccc(N)nc2=O)C(F)(F)[C@@H]1O` [1a]: in data set [1], the “antiviral activity against SARS-CoV-2 (in words)” value (“antiviral activity” for short) is on record as “devoid of antiviral activity”. In addition, the “activity against HCMV (in words)” value in the data set on HCMV AD-169 strain is on record as “completely devoid of activity”. Also, in data set [2], the “activity against VZV (in words)” value is given as “completely devoid of activity”. Also, the “cytotoxicity in Vero cells (in words)” value in the data set with Vero cells is “devoid of antiviral activity and cytotoxicity”.

With `C[C@H](NP(=O)(OC[C@H]1O[C@@H](n2ccc(N)nc2=O)C(F)(F)[C@@H]1O)Oc1ccccc1)C(=O)OCc1ccccc1` (stereo partly drawn) [2c, Benzyl ((((2R,3R,5R)-5-(4-Amino-2-oxopyrimidin-1(2H)-yl)-4,4-difluoro-3-hydroxytetrahydrofuran-2-yl)methoxy)(phenoxy)phosphoryl)-L-alaninate], in data set [1], the “antiviral activity” value is listed as “lack of activity”.

With `C[C@H](NP(=O)(OC[C@@]1(F)O[C@@H](n2ccc(N)nc2=O)C(F)(F)[C@@H]1O)Oc1ccccc1)C(=O)OCc1ccccc1` (some centres unmarked) [2b], in data set [1], the “antiviral activity” value is “minimal antiviral activity”.

On to `CO[C@]1(CO)O[C@@H](n2ccc(=O)[nH]c2=O)C(F)(F)[C@@H]1O` [12a], for which the “activity against HCMV (in words)” value with HCMV AD-169 strain is recorded as “completely devoid of activity”. Moreover, the “activity against VZV (in words)” value in data set [2] is “completely devoid of activity”.

Compound `Nc1ccn(C[C@@H](CO)OCP(=O)(O)O)c(=O)n1` [cidofovir] registered a CC50 in the data set “in vitro” of 150 ± 29.1 µM.

Regarding `O=c1ccn([C@@H]2O[C@](F)(CO)[C@@H](O)C2(F)F)c(=O)[nH]1` [12b], the “activity against HCMV (in words)” value with HCMV AD-169 strain is “completely devoid of activity”. Further, in data set [2], the “activity against VZV (in words)” value is on record as “completely devoid of activity”.

In the case of `Nc1ccn([C@@H]2O[C@](F)(CO)[C@@H](O)C2(F)F)c(=O)n1` [1b], the “antiviral activity” value in data set [1] is on record as “no selective antiviral activity”.

In turn, `Nc1nc(O)c2ncn(COC(CO)CO)c2n1` [ganciclovir] returned a CC50 in the data set “in vitro” of 231 ± 49.2 µM.

For the compound `CO[C@]1(COP(=O)(N[C@@H](C)C(=O)OCc2ccccc2)Oc2ccccc2)O[C@@H](n2ccc(N)nc2=O)C(F)(F)[C@@H]1O` (some centres unmarked) [2a], the “antiviral activity” value in data set [1] is listed as “devoid of antiviral activity”. Besides, the “cytotoxicity in Vero cells (in words)” value with Vero cells is “devoid of antiviral activity and cytotoxicity”.

By EC50 is commonly meant the concentration giving half of the maximal effect.
